Assay results from publication PMC8261488, “Contraceptive progestins with androgenic properties stimulate breast epithelial cell proliferation” (EMBO Molecular Medicine, 2021).

Experiments:
women = women taking androgenic progestins; ref Rossouw et al, 2002; cited from earlier work
AR [1] = system: AR; parameters: method as in earlier work; details: various assays, ref Fuhrmann et al, 1995, Muhn et al, Bouchard, 2005, Mishell, 2008, Schneider et al, 2009, Africander et al, 2011, Louw‐du Toit et al, 2017; cited from earlier work
Wnt4 = Wnt4 transcript levels by RT-PCR in mouse mammary organoids stimulated ex vivo; format: cell-based; details: for Wnt4 transcript levels over vehicle-treated control: BalbC females, 6 h of stimulation
Protocol: (§1) Next, we stimulated mouse mammary organoids derived from several BalbC females with R5020 or different progestins (Fig 1A). […] No significant change in Rankl and Wnt4 transcript levels was detected during the first 2 h (Appendix Fig S1D). By 6 h of R5020 stimulation, Rankl and Wnt4 transcript levels increased 22.4 and 5.8‐fold over the vehicle‐treated control, respectively.
(§2) Animal experiments were performed in accordance with protocol approved by the Service de la Consommation et des Affaires vétérinaires of Canton de Vaud (VD 1865.3, VD 1865.4). NOD. Cg‐Prkdc^scid Il2rg^tm1Wjl/SzJ mice (Charles River), BalbC, and C57Bl6 breeders were purchased from Jackson Laboratories. Mammary glands were isolated from 18‐ to 35‐week‐old mice, lymph nodes removed, minced with surgical blades, and digested in DMEM/F12, 1% penicillin/streptomycin B with collagenase A 0.25 mg/ml (Roche). […] Fat was removed, and pellet containing organoids washed with phosphate‐buffered saline (PBS), resuspended 5 min in 3 ml red cell blood lysis buffer and washed twice with PBS.
(§3) Human breast microstructures and mouse organoids were homogenized in Trizol (Invitrogen). Aqueous phase containing RNA was chloroform extracted and processed with miRNeasy extraction kit (Qiagen). cDNA was synthesized using random p(dN)6 primers (Roche) and MMLV reverse transcriptase (Invitrogen). SYBR Green PCR Core Reagent System (Qiagen) was used for semi‐quantitative real time (RT‐PCR) using the following primers.

HBECs [2] = assay: In vivo growth of intraductal HBEC xenografts measured by radiance; details: 60 days of treatment, subcutaneous pellets
Excerpt: To compare the effects of progesterone and different progestins on HBECs in vivo, we infected single cell suspensions obtained from fresh reduction mammoplasty specimens with GFP‐luciferase2‐expressing lentiviruses. The infected cell mixture was grafted intraductally to up to 5 glands of as many recipients as possible. The engraftment and growth of the xenografted cells were monitored weekly by in vivo imaging. When radiance reached > 10E07 on average per mammary gland, 60‐day‐release pellets were implanted subcutaneously, usually within 3–10 weeks after cell injection. At sacrifice, blood was collected and plasma levels of the administered compounds as well as endogenous steroid hormones were determined by liquid chromatography‐mass spectrometry (LC‐MS) (Laszlo et al, 2019).
Next, the in vivo growth of HBEC xenografts stimulated with progesterone or different progestins was analyzed. […] In addition, the fold change radiance of treated versus untreated samples at endpoint was calculated (Fig 5A–C).
Mice were anesthetized by intraperitoneal injection with 10 mg/kg xylazine and 90 mg/kg ketamine (Graeub) and injected intraductally with 10 μl cell suspension per gland. Bioluminescence imaging was performed as described (Sflomos et al, 2016). After 3–10 weeks, when bioluminescence from individual glands reached 10^7 total flux (p/s/cm2/sr), animals were assigned to different treatment groups and hormone pellets implanted subcutaneously. Enzalutamide (Selleckchem, Catalog No. S1250) dissolved in 15% DMSO in PEG300 was injected intraperitoneally 3 times/week at 30 mg/kg.
Pellets were prepared by mixing the required amount of part A, MP3745/E81949 and part B, MP3744/E81950 of low consistency silicon elastomer (MED‐4011) and hormone powder to homogeneity. Mix was transferred to a syringe and incubated at 37°C overnight. The silicon‐hormone mass was removed from the syringe and cut to pieces, as described (Duss et al, 2007). The original protocol was adapted for different doses as described below.

HBECs [3] = assay: MKI67/Ki67 expression in xenografted HBECs; format: in vivo, human; details: 21 days pellets; for cell proliferation (KI67 and hECAD double+ cells), overall analysis: HBECs from 11 different patients; for cell proliferation (KI67 and hECAD double+ cells): one mammoplasty (M310)
Excerpt: (§4) Next, we sought for a readout of in vivo cell proliferation different from radiance. […] Given that MKI67 expression could replace the luciferase measurements as a readout, we used a modified experimental setup for a second round of experiments. We derived HBECs from viably frozen mammoplasty samples (Appendix Table S3) and engrafted them to different mammary glands of NSG females without viral infection. Four months later, the 24 recipient females, each engrafted with 5 different mammoplasties received pellets containing either vehicle, progesterone, or 1 of 6 progestins for 21 days. At sacrifice, xenografted glands were histologically sectioned and cell proliferation was quantified using co‐IF with anti‐MKI67 and anti‐hECAD antibodies. For one of the mammoplasties, we were able to obtain measurements for all experimental conditions (Fig 5I). […] For the remaining mammoplasties, between 3 and 8 different experimental conditions were successfully quantified (Appendix Table S4). […] CPA (P < 0.0001) decreased proliferation, whereas CMA and DSP had no effect (Fig 5K). As AR signaling increases AR protein levels, we performed co‐IF for AR and hECAD as another means to assess AR signaling activity.
(§5) Tissues were fixed for 2 h at room temperature in 4% paraformaldehyde and paraffin‐embedded. Dewaxed and rehydrated paraffin sections were pretreated in 10 mM Na citrate (pH 6.0) at 95° for 20 min. Blocking was performed with 1% BSA for 60 min. Primary antibodies used were as follows: Ki67 (rabbit α‐Ki67, clone Sp6, Spring Amsbio, dilution 1:200), ER (rabbit α‐ER, clone Sp1, Zytomed RTU), PR (rabbit α‐PR, clone 1E2, Ventana RTU), AR (rabbit α‐AR, clone SP107, Thermo Fisher, diluted 1:200), CK7 (rabbit α‐CK7, clone Sp52, Abcam, diluted 1:500), CK19 (mouse KS19.2 (Z105.6), American Research Products Inc. (diluted 1:50), and mouse α‐ECAD (clone G‐10, sc‐8426, diluted 1:100). For IHC, chromogenic revelation was performed with ChromoMap DAB kit (Roche Diagnostics, Switzerland) and sections were counterstained with Mayer’s hematoxylin. For fluorescence microscopy, nuclei were counterstained with DAPI (Sigma). IHC for ER, PR, and AR was performed on Discovery Ventana ULTRA (44). IHC images were acquired on Leica DM 2000 with Leica DFC450 C camera. IF images were acquired on Zeiss LSM700 confocal microscope. Slides were scanned with Olympus VS120‐L100 slide scanner with 20×/0.75 objective and Pike F505 C Color camera. Images were loaded into QuPath using the BioFormats extension (Bankhead et al, 2017).

AR [4] = assay: Percentage of AR+ cells in xenografted HBECs by co-IF for AR and hECAD; format: in vivo, human; details: 21 days pellets, HBECs from 11 different patients
Excerpt: as §4, §5

Rankl = Rankl transcript levels by RT-PCR in mouse mammary organoids stimulated ex vivo; format: cell-based; details: for Rankl transcript levels over vehicle-treated control: BalbC females, 6 h of stimulation
Protocol: as §1, §2, §3

[5] = system: endogenous hormone levels in mice; assay: Endogenous steroid hormone plasma levels in treated host mice by LC-MS; format: in vivo, mouse; details: xenografted NSG females with pellets
Excerpt: Next, we assessed whether progesterone and progestins differentially affected endogenous hormone levels in mice. Plasma 17‐β‐estradiol levels were not affected by any of the treatments (Fig 4H). […] Plasma testosterone levels were not altered by any treatment with the exception of DSP, which decreased them (Fig 4H). Thus, prolonged exposures to progestins differentially affect endogenous progesterone plasma levels and DSP decreases testosterone plasma levels in host mice.

[6] = BalbC-derived organoids, 24 h of stimulation

Row | SMILES | breast cancer risk (women) | androgenic / anti-androgenic activity (AR [1]) | Wnt4 transcript levels over vehicle-treated control (Wnt4) | Wnt4 transcript induction (Wnt4; [6]) | Wnt4 transcript induction (Wnt4; C57Bl/6 mice, 6 h, 20 nM) | growth (course of radiance) of engrafted HBECs versus control (HBECs [2]) | relative radiance at endpoint over control (FC) (HBECs [2]) [fold] | cell proliferation (KI67 and hECAD double+ cells), overall analysis (HBECs [3]) | cell proliferation (KI67 and hECAD double+ cells) (HBECs [3]) | percentage of AR+ cells (AR index) (AR [4]) | Rankl transcript levels over vehicle-treated control (Rankl) | Rankl transcript induction (Rankl; [6]) | Rankl transcript induction (Rankl; C57Bl/6 mice, 6 h, 20 nM) | endogenous progesterone plasma levels (estrous cycle-related variation) [5] | plasma testosterone levels [5]
1 | CC(=O)O[C@]1(C(C)=O)CC[C@H]2[C@@H]3C[C@H](C)C4=CC(=O)CC[C@]4(C)[C@H]3CC[C@@]21C [MPA] | elevated breast cancer risk | – | – | – | – | – | – | – | – | – | – | – | – | – | –
2 | CC(=O)O[C@]1(C(C)=O)CC[C@H]2[C@@H]3C=C(Cl)C4=CC(=O)CC[C@]4(C)[C@H]3CC[C@@]21C [CMA, chlormadinone acetate] | – | anti‐androgenic activity | did not alter Wnt4 transcript levels | no effect | did not alter Wnt4 transcript levels | Neither CMA nor CPA had any effect on the growth | 0.7 | no effect | no effect | no effect | failed to affect Rankl transcript levels at all | no effect | failed to increase Rankl transcript levels | tendency toward higher average level of progesterone | –
3 | CC(=O)O[C@]1(C(C)=O)CC[C@H]2[C@@H]3C=C(Cl)C4=CC(=O)[C@@H]5C[C@@H]5[C@]4(C)[C@H]3CC[C@@]21C [CPA, cyprotherone acetate] | – | anti‐androgenic activity | did not alter Wnt4 transcript levels | no effect | 2 fold | Neither CMA nor CPA had any effect on the growth | 0.7 | decreased | decreased | decreased | failed to affect Rankl transcript levels at all | no effect | failed to increase Rankl transcript levels | did not affect | –
4 | C[C@]12CCC(=O)C=C1[C@@H]1C[C@@H]1[C@H]1[C@@H]3[C@@H]4C[C@@H]4[C@@]4(CCC(=O)O4)[C@@]3(C)CC[C@@H]12 [DSP, drospirenone] | – | anti‐androgenic activity | did not alter Wnt4 transcript levels | no effect | did not alter Wnt4 transcript levels | failed to affect | 1.4 | no effect | no effect | decreased | failed to affect Rankl transcript levels at all | no effect | failed to increase Rankl transcript levels | suppressed | decreased
